Assay results: patent publication US6958352B2, “Compounds for inhibiting insulin secretion and methods related thereto” (SmithKline Beecham Corporation, priority 2002, dated 2005)
Like-named read-outs stand apart in the source and are kept apart here.

Molecular target: T1, mitochondrial calcium/sodium antiporter (Rattus norvegicus, UniProt Q6AXS0)
T1 sequence (Q6AXS0 1-585): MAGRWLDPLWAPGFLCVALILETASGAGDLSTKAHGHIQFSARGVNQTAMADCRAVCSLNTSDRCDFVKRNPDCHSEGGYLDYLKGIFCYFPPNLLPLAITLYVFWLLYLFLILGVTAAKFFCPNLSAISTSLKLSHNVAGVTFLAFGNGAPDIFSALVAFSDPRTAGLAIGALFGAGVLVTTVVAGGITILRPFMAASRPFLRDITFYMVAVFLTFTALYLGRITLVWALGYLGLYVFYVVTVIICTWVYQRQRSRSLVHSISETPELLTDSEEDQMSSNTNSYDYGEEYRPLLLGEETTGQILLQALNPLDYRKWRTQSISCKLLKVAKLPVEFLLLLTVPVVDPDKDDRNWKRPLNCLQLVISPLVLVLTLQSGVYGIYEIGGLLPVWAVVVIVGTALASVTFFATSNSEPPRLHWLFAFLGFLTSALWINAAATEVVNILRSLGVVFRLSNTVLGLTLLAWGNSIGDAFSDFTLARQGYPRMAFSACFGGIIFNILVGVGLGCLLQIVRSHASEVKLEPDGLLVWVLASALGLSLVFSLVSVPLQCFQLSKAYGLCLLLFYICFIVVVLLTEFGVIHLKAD
Experiment: Inhibition of mitochondrial calcium/sodium antiporter activity (NaCl-induced mitochondrial calcium efflux, calcium green 5N fluorescence)
Type: cell-based
Conditions: digitonin-permeabilized INS-1 cells, 20 mM NaCl
Description: INS-1 rat insulinoma cells (see Example 16) were harvested by trypsinization, washed and resuspended at 10×10^6 cells/ml in assay buffer (250 mM sucrose, 10 mM HEPES, 2.5 mM K2HPO4, 5 mM succinate, pH 7.4) containing 0.007% digitonin, 60 μM CaCl2 and 0.05 μM calcium green 5N (Molecular Probes, Inc., Eugene, Oreg.). After a five-minute calcium loading incubation, ruthenium red (1 μM; Sigma, St. Louis, Mo.) was added to block further calcium uptake by mitochondria. Cell suspensions were dispensed into 96-well plates (100 μl per well, 1×10^6 cells per well) and candidate agents (i.e., candidate mitochondrial calcium/sodium antiporter inhibitors) were added to some sets of triplicate wells at concentrations of 1, 10 or 100 μM, while other sets of wells provided appropriate control conditions (e.g., buffer and vehicle controls). Baseline fluorescence measurements were made using a multiwell plate fluorimeter (F-MAX™, Molecular Devices Corp., Sunnyvale, Calif.; or PolarStar™, BMG Labtechnologies, Inc., Durham, N.C.) according to the manufacturer's instructions. Calcium efflux from mitochondria was then induced by adding NaCl to all wells to achieve a final concentration of 20 mM, and the rate of change in fluorescence in each well was monitored […] for two minutes and quantified using software included with the plate reader.

[1] = Table 2, preferred compounds, read-out: IC50 ≦ 10 μM
[2] = Table 3, more preferred compounds, read-out: IC50 ≦ 1 μM

| IC50 [2] [µM] | Compound | IC50 [1] [µM] | IC50 (IC50 ≦ 1 μM, Table 3, more preferred compounds) [µM] | IC50 (IC50 ≦ 10 μM, Table 2, preferred compounds) [µM] |
| --- | --- | --- | --- | --- |
| ≤ 1 | COc1ccc(C(=O)NCCSC(c2cc(Cl)ccc2N)C2CCCCC2)cc1OC (stereo not shown) [Compound 16n] | – | – | – |
| – | COc1cc(C(=O)NCCSC(c2cc(Cl)ccc2N)C2CCCCC2)cc(OC)c1O (stereo not shown) [Compound 16p] | ≤ 10 | – | – |
| ≤ 1 | COc1ccccc1C(=O)NCCSC(c1cc(Cl)ccc1N)C1CCCCC1 (stereo not shown) [Compound 16q] | – | – | – |
| ≤ 1 | COc1cccc(C(=O)NCCSC(c2cc(Cl)ccc2N)C2CCCCC2)c1 (stereo not shown) [Compound 16r] | – | – | – |
| ≤ 1 | COc1ccc(C(=O)NCCSC(c2cc(Cl)ccc2N)C2CCCCC2)cc1 (stereo not shown) [Compound 16s] | – | – | – |
| ≤ 1 | Nc1ccc(Cl)cc1C(SCCNC(=O)c1cccnc1)C1CCCCC1 (stereo not shown) [Compound 16t] | – | – | – |
| ≤ 1 | Nc1ccc(Cl)cc1C(SCCNC(=O)c1ccncc1)C1CCCCC1 (stereo not shown) [Compound 16u] | – | – | – |
| – | Nc1ccc(Cl)cc1C(SCCNC(=O)c1cn[nH]c1)C1CCCCC1 (stereo not shown) [Compound 16v] | ≤ 10 | – | – |
| ≤ 1 | Nc1ccc(Cl)cc1C(SCCNC(=O)c1ccc2c(c1)OCO2)C1CCCCC1 (stereo not shown) [Compound 16w] | – | – | – |
| ≤ 1 | CS(=O)(=O)c1ccc(C(=O)NCCSC(c2cc(Cl)ccc2N)C2CCCCC2)cc1 (stereo not shown) [Compound 16x] | – | – | – |
| – | Nc1ccc(Cl)cc1C(SCCNC(=O)c1ccc(S(N)(=O)=O)cc1)C1CCCCC1 (stereo not shown) [Compound 16y] | ≤ 10 | – | – |
| ≤ 1 | COc1ccc(C(=O)NCCSC(c2cc(Cl)ccc2N)C(C)C)cc1OC (stereo not shown) [Compound 16z] | – | – | – |
| – | Nc1ccc(Cl)cc1C(SCCNC(=O)Nc1cccc(F)c1)c1ccccc1Cl (stereo not shown) [Compound 17a] | ≤ 10 | – | – |
| – | Nc1ccc(Cl)cc1C(SCCNC(=O)Nc1cc(F)ccc1F)c1ccccc1Cl (stereo not shown) [Compound 17d] | ≤ 10 | – | – |
| – | Nc1ccc(Cl)cc1C(SCCNC(=O)Nc1cccc(Cl)c1Cl)c1ccccc1Cl (stereo not shown) [Compound 17e] | ≤ 10 | – | – |
| ≤ 1 | COc1ccc(NC(=O)NCCSC(c2cc(Cl)ccc2N)C2CCCCC2)c(OC)c1 (stereo not shown) [Compound 17g] | – | – | – |
| ≤ 1 | COc1cc(NC(=O)NCCSC(c2cc(Cl)ccc2N)C2CCCCC2)cc(OC)c1OC (stereo not shown) [Compound 17h] | – | – | – |
| ≤ 1 | COc1cc(NC(=S)NCCSC(c2cc(Cl)ccc2N)C2CCCCC2)cc(OC)c1OC (stereo not shown) [Compound 17i] | – | – | – |
| ≤ 1 | COc1ccc(NC(=O)NCCSC(c2cc(Cl)ccc2N)C2CCCCC2)cc1OC (stereo not shown) [Compound 17j] | – | – | – |
| ≤ 1 | COc1ccc(NC(=S)NCCSC(c2cc(Cl)ccc2N)C2CCCCC2)c(OC)c1 (stereo not shown) [Compound 17k] | – | – | – |
| – | Nc1ccc(Cl)cc1C(SCCNS(=O)(=O)c1ccc(OC(F)(F)F)cc1)c1ccccc1Cl (stereo not shown) [Compound 18d] | ≤ 10 | – | – |
| ≤ 1 | COc1ccc(S(=O)(=O)NCCSC(c2cc(Cl)ccc2N)C2CCCCC2)cc1OC (stereo not shown) [Compound 18f] | – | – | – |
| ≤ 1 | COc1ccc(S(=O)(=O)NCCSC(c2cc(F)ccc2N)C2CCCCC2)cc1OC (stereo not shown) [Compound 18g] | – | – | – |
| – | COC(=O)CSCC(c1cc(Cl)ccc1N)c1ccccc1Cl (stereo not shown) [Compound 20a] | ≤ 10 | – | – |

| IC50 [2] [µM] | Compound | IC50 [1] [µM] | IC50 (IC50 ≦ 1 μM, Table 3, more preferred compounds) [µM] | IC50 (IC50 ≦ 10 μM, Table 2, preferred compounds) [µM] |
| --- | --- | --- | --- | --- |
| ≤ 1 | COC(=O)CSCC(c1cc(Cl)ccc1N)c1ccccc1F (stereo not shown) [Compound 20b] | ≤ 10 | – | – |
| ≤ 1 | COC(=O)CSCC(c1cc(Br)ccc1N)c1ccccc1F (stereo not shown) [Compound 20c] | ≤ 10 | – | – |
| ≤ 1 | COC(=O)CSCC(c1ccccc1)c1cc(Cl)ccc1N (stereo not shown) [Compound 20d] | ≤ 10 | – | – |
| – | NC(=O)CSCC(c1cc(Cl)ccc1N)c1ccccc1Cl (stereo not shown) [Compound 21a] | ≤ 10 | – | – |
| – | CNC(=O)CSCC(c1cc(Br)ccc1N)c1ccccc1F (stereo not shown) [Compound 21g] | ≤ 10 | – | – |
| ≤ 1 | CNC(=O)CSCC(c1ccccc1)c1cc(Cl)ccc1N (stereo not shown) [Compound 21h] | ≤ 10 | – | – |
| ≤ 1 | Cc1noc(CSCC(c2cc(Cl)ccc2N)c2ccccc2Cl)n1 (stereo not shown) [Compound 22a] | ≤ 10 | – | – |
| ≤ 1 | Cc1noc(CSCC(c2cc(Cl)ccc2N)c2ccccc2F)n1 (stereo not shown) [Compound 22b] | ≤ 10 | – | – |
| – | Cc1noc(CSCC(c2cc(Br)ccc2N)c2ccccc2F)n1 (stereo not shown) [Compound 22c] | ≤ 10 | – | – |
| ≤ 1 | Cc1noc(CSCC(c2ccccc2)c2cc(Cl)ccc2N)n1 (stereo not shown) [Compound 22d] | ≤ 10 | – | – |
| – | COC(=O)C(c1cccc(Cl)c1)c1ccccc1[N+](=O)[O-] (stereo not shown) [Compound 25a] | ≤ 10 | – | – |
| ≤ 1 | CCOC(=O)C(c1ccccc1C)c1ccccc1[N+](=O)[O-] (stereo not shown) [Compound 25b] | ≤ 10 | – | – |
| – | COC(=O)C(c1ccccc1)c1ccccc1[N+](=O)[O-] (stereo not shown) [Compound 25c] | ≤ 10 | – | – |
| ≤ 1 | COC(=O)C(c1ccccc1[N+](=O)[O-])c1cccc2ccccc12 (stereo not shown) [Compound 25d] | ≤ 10 | – | – |
| – | CNC(=O)C(c1cccc(Cl)c1)c1ccccc1[N+](=O)[O-] (stereo not shown) [Compound 26a] | ≤ 10 | – | – |
| ≤ 1 | O=C(NCCc1ccccc1)C(c1cccc(Cl)c1)c1ccccc1[N+](=O)[O-] (stereo not shown) [Compound 26b] | ≤ 10 | – | – |
| – | O=[N+]([O-])c1ccccc1C(CNCCc1ccccc1)c1cccc(Cl)c1 (stereo not shown) [Compound 27b] | – | ≤ 1 | ≤ 10 |
| – | COC(=O)CN(C)CC(c1cccc(Cl)c1)c1ccccc1[N+](=O)[O-] (stereo not shown) [Compound 28a] | ≤ 10 | – | – |
| – | COC(=O)CSC(c1ccccc1C)c1ccccc1NC(=O)c1ccccc1 (stereo not shown) [Compound 34c] | ≤ 10 | – | – |
| – | CNCCSCC(c1cc(Cl)ccc1N)c1ccccc1F (stereo not shown) [Compound 35f] | ≤ 10 | – | – |
| – | Nc1ccc(Br)cc1C(CSCc1nc2ccccc2[nH]1)c1ccccc1F (stereo not shown) [Compound 37a] | ≤ 10 | – | – |
| – | Cc1noc(C[S+]([O-])CC(c2cc(Cl)ccc2N)c2ccccc2Cl)n1 (stereo not shown) [Compound 38a] | ≤ 10 | – | – |
| ≤ 1 | COc1ccc(S(=O)(=O)N2CCC(CSC(c3cc(Cl)ccc3N)C3CCCCC3)CC2)cc1OC (stereo not shown) [Compound 40] | – | – | – |

| Compound | IC50 [2] [µM] | IC50 [1] [µM] | IC50 (IC50 ≦ 1 μM, Table 3, more preferred compounds) [µM] | IC50 (IC50 ≦ 10 μM, Table 2, preferred compounds) [µM] |
| --- | --- | --- | --- | --- |
| Nc1ccc(Cl)cc1C(SCCNC(=O)c1cccc(Br)c1)c1ccccc1Cl (stereo not shown) [Compound 16e] | ≤ 1 | ≤ 10 | – | – |
| COC1CCC(C(=O)NCCSC(c2cc(Cl)ccc2N)c2ccccc2Cl)CC1 (stereo not shown) [Compound 16f] | ≤ 1 | ≤ 10 | – | – |
| Nc1ccc(Cl)cc1C(SCCNC(=O)c1ccc([N+](=O)[O-])cc1)c1ccccc1Cl (stereo not shown) [Compound 16g] | ≤ 1 | ≤ 10 | – | – |
| Nc1ccc(Cl)cc1C(SCCNC(=O)C1CCC1)c1ccccc1Cl (stereo not shown) [Compound 16h] | ≤ 1 | ≤ 10 | – | – |
| Nc1ccc(Cl)cc1C(SCCNC(=O)C1CCCCC1)c1ccccc1Cl (stereo not shown) [Compound 16i] | ≤ 1 | ≤ 10 | – | – |
| CC(C)C(=O)NCCSC(c1cc(Cl)ccc1N)c1ccccc1Cl (stereo not shown) [Compound 16j] | ≤ 1 | ≤ 10 | – | – |
| Nc1ccc(Cl)cc1C(SCCNC(=O)c1cccnc1)c1ccccc1Cl (stereo not shown) [Compound 16k] | ≤ 1 | ≤ 10 | – | – |
| Nc1ccc(Cl)cc1C(SCCNC(=O)COc1ccccc1)c1ccccc1Cl (stereo not shown) [Compound 16l] | ≤ 1 | ≤ 10 | – | – |
| Nc1ccc(Cl)cc1C(SCCNC(=O)c1ccccn1)c1ccccc1Cl (stereo not shown) [Compound 16m] | ≤ 1 | ≤ 10 | – | – |
| Nc1ccc(Cl)cc1C(SCCNC(=O)Nc1ccccc1OC(F)(F)F)c1ccccc1Cl (stereo not shown) [Compound 17b] | ≤ 1 | ≤ 10 | – | – |
| COc1ccc(NC(=O)NCCSC(c2cc(Cl)ccc2N)c2ccccc2Cl)c(OC)c1 (stereo not shown) [Compound 17f] | ≤ 1 | ≤ 10 | – | – |
| Nc1ccc(Cl)cc1C(SCCNS(=O)(=O)c1ccccc1)c1ccccc1Cl (stereo not shown) [Compound 18b] | ≤ 1 | ≤ 10 | – | – |
| Nc1ccc(Cl)cc1C(SCCNS(=O)(=O)c1ccccc1[N+](=O)[O-])c1ccccc1Cl (stereo not shown) [Compound 18c] | ≤ 1 | ≤ 10 | – | – |
| CS(=O)(=O)NCCSC(c1cc(Cl)ccc1N)c1ccccc1Cl (stereo not shown) [Compound 18e] | ≤ 1 | ≤ 10 | – | – |
| NC(=O)CSCC(c1ccccc1)c1cc(Cl)ccc1N (stereo not shown) [Compound 21d] | ≤ 1 | ≤ 10 | – | – |
| CNC(=O)CSCC(c1cc(Cl)ccc1N)c1ccccc1Cl (stereo not shown) [Compound 21e] | ≤ 1 | ≤ 10 | – | – |
| CNC(=O)CSCC(c1cc(Cl)ccc1N)c1ccccc1F (stereo not shown) [Compound 21f] | ≤ 1 | ≤ 10 | – | – |
| Nc1ccc(Cl)cc1C(c1ccccc1Cl)[S+]([O-])CC(=O)NCC(c1ccccc1)c1ccccc1 (stereo not shown) [Compound 38c] | ≤ 1 | ≤ 10 | – | – |
